Test results from patent US20050130902A1, “Peptide compounds for counteracting reactive oxygen species and free radicals” (priority 2001, published 2005).
Values joined by “and” are separate entries in the source; they are usually repeats but may differ in a detail not shown here. Equal values may be shown once. No end group written: not given here.

Key:
SOD-1 = assay: PEP-2-dependent upregulation of SOD-1 in rat cortical cell cultures (Western immunoblot, densitometry); assay type: cell-based; conditions: 5 hours, rat brain cortical cells, vs vehicle control
Experimental: Primary cortical cultures were obtained by growing newborn rat brain cortical cells in Delbecco's modified Eagle medium supplemented with 100 units/ml of penicillin G, 100 μg/ml of streptomycin, and 10% fetal calf serum. The cells were isolated from the E-21 cortex of rat brain, plated at a density of 1×10^5 per ml and grown to confluence within four to five days in an atmosphere containing air and 5% CO2 at 37° C. as described in Cornell-Bell et al., Science, 247: 470473 (1990) and Cell Calcium, 12: 185-204 (1991). Cultures were grown in 20 ml flasks as a monolayer and then exposed to various concentrations of peptide for studies of the effects of PEP-2 on upregulation of the gene for SOD. Cultures of the rat brain cortical cells were incubated with 1 ng/ml, 10 ng/ml, and 100 ng/ml of peptide compound PEP-2 for durations of 5 hours. Control cultures were treated in the same manner, but were not incubated with PEP-2.
Cytoplasmic proteins were isolated according to published methods (Adams et al., J. Leukoc. Biol. 62: 865-873 (1997)). The cell cultures were washed once in phosphate buffer saline (PBS) containing 20 mM EDTA and then suspended in 250 μl of freshly prepared lysis buffer (20 mM Hepes, pH 7.9, 10 mM KCl, 300 mM NaCl, 1 mM MgCl2, 0.1% Triton X-100 nonionic detergent, 20% glycerol, 0.5 mM dithiothreitol (DTT), freshly supplemented with inhibitors as described in Adams et al., J. Biol. Chem., 77: 221-233 (2000)). The suspensions were then incubated for at least 10 minutes on ice to lyse cells and then centrifuged (14,000×g for 5 minutes at 4° C.) to pellet cell debris. The supernatant cytoplasmic fractions were removed and stored as aliquots at −80° C. for analysis. […]
The cytoplasmic proteins were separated by SDS-PAGE using 5 μg/lane on the gels for analysis by Western immunoblots. […] SOD expression was detected in the Western blots using anti-SOD rabbit polyclonal antibody (Rockland, Inc., Gilbertville, Pa.). The Western blots were also analyzed by laser densitometry to quantify SOD protein upregulation. […]

SOD [1] = assay: In vivo SOD upregulation in rat brain and heart after iv injection (Western immunoblot); set-up: species or system Sprague-Dawley rats; conditions: 1.2 mg/kg iv, 6 hours post injection
Experimental: (§1) In vivo experiments were carried out in Sprague-Dawley rats (300-325 g) with solutions of peptide compounds PEP-1 and PEP-3. The animals were injected intravenously (iv) via the tail vein with a peptide compound. Each animal received one injection of peptide compound in normal saline at total dose equivalent of 1.2 or 2.4 mg peptide compound/kg body weight. The animals were sacrificed by decapitation at 6 hours post injection and dissected to isolate brain and heart organs, which were frozen at −70° C. for subsequent analysis by Western immunoblots.
(§2) Each tissue was thawed and homogenized in a Down's homogenizer using ten volumes of homogenizer buffer (see, Adams et al., […], 77: 221-233 (2000); buffer as described in Adams et al., J. Leukoc. Biol., 62: 865-875 […]) to obtain a crude cytoplasmic fraction. The tissue homogenates were centrifuged (14,000×g for 5 minutes at 4° C.) to yield the supernatant purified cytoplasmic protein fractions for Western immunoblot analysis as described in Adams et al. (J. Cell. Biochem., 77: 221-233 (2000)). A 10 μg sample of each protein fraction was then separated by SDS polyacrylamide gel electrophoresis (SDS-PAGE) and analyzed for SOD and CAT content by Western blot assay as above.
(§3) Controls for measurement of unstimulated levels of SOD were obtained from two vehicle-only (i.e., no peptide compound), injected rats that were sacrificed at 6 hours post injection. Both had essentially the same unstimulated level of SOD. Standard quantities of each cytoplasmic fraction (10 μg) were loaded on a lane of a gel for electrophoretic separation and Western immunoblot analysis (Adams et al., J. Cell. Biochem., 77: 221-233 (2000)). The stained gels were photographed and scanned by laser densitometry to quantify intensities in comparison to enzyme levels for control vehicle treated rats.

CAT = assay: In vivo CAT upregulation in rat brain and heart after iv injection (Western immunoblot); set-up: species or system Sprague-Dawley rats; conditions: 1.2 mg/kg iv, 6 hours post injection
Experimental: as §1, §2, §3

SOD [2] = assay: SOD level in brain of old C57 Black mice, 14 days oral gavage on various schedules; assay type: in vivo; conditions: 18-month old mice
Experimental: Adult 18-month old C57 Black mice (“old mice”) were treated with 0.25 mg/kg of PEP-1 by oral gavage for a period of 14 days. The animals belonged to the following 5 treatment groups (n=3 per group): • Group 1: Control, untreated • Group 2: Treatment once per week • Group 3: Treatment twice per week • Group 4: Treatment every other day • Group 5: Daily treatment
At the end of 14 days, all animals were sacrificed and their brains were harvested and the SOD level was analyzed by Western immunoblot as described above. A SOD standard (“M”) was also run alongside the samples. The SOD levels were quantitated by densitometry measurements of the blot.

SOD [3] = assay: SOD level in brain of old C57 Black mice, 30 days daily oral gavage; assay type: in vivo; conditions: 18-month old mice
Experimental: As a further examination of the dose-response effect on upregulating SOD in “old” adult C57 Black mice, young and old animals were divided into the following treatment groups (n=3): • Animals 1-3: Young, 4-month old mice, untreated • Animals 4-6: Old, 18-month old mice, untreated • Animals 7-9: Old, 18-month old mice treated daily by oral gavage 0.33 mg/kg of PEP-1 • Animals 10-1 2: Old, 18-month old mice treated daily by oral gavage 3.3 mg/kg of PEP-1
At the end of 30 days, all animals were sacrificed and their brains were harvested. SOD level was analyzed by Western immunoblot. A SOD standard (“M”) was also run alongside the samples. The SOD levels were quantitated by densitometry measurements of the immunoblot.

[4] = Survival (longevity) of old C57 Black mice over 70-day treatment; assay type: in vivo; conditions: old 16-month mice
From the text: This study was designed to examine the in vivo effect of daily administration of a representative peptide compound, PEP-1, to reverse age-related declines in spontaneous behavioral arousal as measured by effect on locomotor activity and longevity of “old” adult individuals. In this study, C57 Black mice were divided into the following treatment groups (n=10 per group): • Group 1: Young, 4-month old mice, untreated • Group 2: Old, 16-month old mice, untreated • Group 3: Old, 16-month old mice treated daily by oral gavage with 0.025 mg/kg of PEP-1
Group 4: Old, 16-month old mice treated daily by oral gavage with 0.075 mg/kg of PEP-1 • Group 5: Old, 16-month old mice treated daily by oral gavage with 0.25 mg/kg of PEP-1 • Group 6: Old, 16-month old mice treated daily by oral gavage with 0.75 mg/kg of PEP-1 • Group 7: Old, 16-month old mice treated daily by oral gavage with 2.5 mg/kg of PEP-1
At the end of a 70-day treatment period, all of the young, untreated mice (Group 1) were alive (i.e., to an age of 6.5 months), but 3 of the 10 untreated old mice (Group 2) had died. Also, 2 animals in each of Groups 3 and 4 died during this same period.

[5] = Locomotor activity test (spontaneous behavioral arousal) in old C57 Black mice; assay type: in vivo
Experimental: Six weeks after assignment of the doses, surviving animals were examined in a standard locomotor activity test used to detect evidence of a reversal of age-related declines in spontaneous behavioral arousal (Forster et al., 1996; Dubey et al., Arch. Biochem. Biophys., 333: 189-197 (1996)). Arousal levels were measured using a Digiscan apparatus (Omnitech, model RXYZCM, Omnitech Electronics, Columbus, Ohio, USA). Each mouse was placed in a clear acrylic chamber (40.5 cm×40.5 cm×30.5 cm) for a […] session. The acrylic chamber was placed in a metal frame lined with arrays of photocells. A wooden cabinet with sheets of insulation enclosed the acrylic chamber and the metal frame. Fans provided an 80-db ambient noise level within the chamber. Movements of the mouse within the horizontal plane interrupted the photobeams, which were automatically recorded by a computer within 1-minute time samples. The measure used in this study was the average horizontal photobeam interruptions per minute, over a 16-minute testing session (horizontal counts/min).
The locomotor activity test was performed on blinded Groups 1, 2, 3, 4, 5, and 6, (young untreated control, old untreated control, old treated with PEP-1 at 0.025 mg/kg 0.075 mg/kg, 0.25 mg/kg, and 0.75 mg/kg, respectively) six weeks after assignment of the doses. A significant difference between the young and old untreated control groups was found (p<0.05), verifying previous findings of the age-associated decrease in spontaneous behavioral arousal.

Substance: [Ac] Asp Gly Glu Ala Leu (Ac-DGEAL) [PEP-2]
- Fold-Increase in SOD Expression (SOD-1; 1 ng/ml): 2 fold and 1.8 fold
- Fold-Increase in SOD Expression (SOD-1; 10 ng/ml): 1.9 fold
- Fold-Increase in SOD Expression (SOD-1; 100 ng/ml): 2.1 fold

Substance: [Ac] Asp Gly Glu Ala (Ac-DGEA) [PEP-1]
- SOD (Fold increase) (SOD [1]; rat brain): 1.0 fold
- SOD (Fold increase) (SOD [1]; rat heart): 1.0 fold
- CAT (Fold increase) (CAT; rat brain): 1.0 fold
- CAT (Fold increase) (CAT; rat heart): 1.1 fold
- SOD level elevation compared to control group (SOD [2]; 0.25 mg/kg oral gavage daily): over 4.5 fold
- SOD level elevation compared to control group (SOD [2]; 0.25 mg/kg oral gavage every other day): over 4.5 fold
- increase in SOD level compared to control group (SOD [2]; 0.25 mg/kg oral gavage twice per week): 2.3 fold
- increase in SOD level compared to untreated old control (SOD [3]; 0.33 mg/kg oral daily): 2.9 fold
- level of SOD expression in brain tissue compared to untreated old control (SOD [3]; 3.3 mg/kg oral daily): 4.8 fold
- SOD-related breakdown fragments (SOD [3]; brain, 0.33 or 3.3 mg/kg oral daily): no change
- animals that died during 70-day treatment period ([4]; 0.025 mg/kg daily oral gavage, n=10 (Group 3)): 2 animals
- animals that died during 70-day treatment period ([4]; 0.075 mg/kg daily oral gavage, n=10 (Group 4)): 2 animals
- survival over 70-day treatment period ([4]; 0.25 mg/kg daily oral gavage, n=10 (Group 5)): all of the old mice treated with PEP-1 survived
- survival over 70-day treatment period ([4]; 0.75 mg/kg daily oral gavage, n=10 (Group 6)): all of the old mice treated with PEP-1 survived
- survival over 70-day treatment period ([4]; 2.5 mg/kg daily oral gavage, n=10 (Group 7)): all of the old mice treated with PEP-1 survived
- horizontal locomotor activity (horizontal counts/min) ([5]; 0.025 mg/kg daily oral, six weeks (Group 3)): failed to differ significantly from the old controls
- horizontal locomotor activity (horizontal counts/min) ([5]; 0.075 mg/kg daily oral, six weeks (Group 4)): higher than that of the old controls
- horizontal locomotor activity (horizontal counts/min) ([5]; 0.25 mg/kg daily oral, six weeks (Group 5)): higher than that of the old controls
- horizontal locomotor activity (horizontal counts/min) ([5]; 0.75 mg/kg daily oral, six weeks (Group 6)): higher than that of the old controls

Substance: [Ac] Asp Gly Leu Glu Ala (Ac-DGLEA) [PEP-3]
- SOD (Fold increase) (SOD [1]; rat brain): 1.0 fold
- SOD (Fold increase) (SOD [1]; rat heart): 1.2 fold
- CAT (Fold increase) (CAT; rat brain): 1.0 fold
- CAT (Fold increase) (CAT; rat heart): 1.0 fold
